What was measured:
RNA-polymerase II = RNA-polymerase II (Homo sapiens, UniProt P24928); details: not covalently bound, very tight complex; read-out: KD of complex between amanitin and RNA-polymerase II; cited from earlier work
SKOV3 cells = experiment: viability of SKOV3 cells treated with amatoxins (FIG. 3); type: cell-based
[1] = Zanotti et al., 1989; cited from earlier work

Compound: amanitin
- Kd (RNA-polymerase II): 3 nM

Compound: CC[C@H](C)[C@@H]1NC(=O)CNC(=O)C2Cc3c([nH]c4cc(O)ccc34)[S@+]([O-])CC(NC(=O)CNC1=O)C(=O)N[C@@H](CC(N)=O)C(=O)N1CC(O)C[C@H]1C(=O)N[C@@H]([C@@H](C)[C@H](C)O)C(=O)N2 (stereo partly drawn) [γ-amanitin (4), γ-amanitin]
- EC50 (SKOV3 cells): 270 nM

Compound: S-deoxo-γ(R)-hydroxy-isoleucin-amaninamide
- biological activity [1]: biologically inactive
